# Test results published in ChEMBL document CHEMBL1629678, “Apricitabine does not select additional drug resistance mutations in tissue culture in human immunodeficiency virus type 1 variants containing K65R, M184V, or M184V plus thymidine analogue mutations” (Antimicrob Agents Chemother, 2009).
# Tests used:
# [1] = system: Human immunodeficiency virus 1; assay: Selectivity ratio of IC50 for HIV1 HXB-2D harboring reverse transcriptase M184V, M41L and T215Y mutant gene to IC50 for wild type HIV1 HXB-2D infected in human cord blood mononuclear cells; format: functional
# [2] = system: Human immunodeficiency virus 1; assay: Selectivity ratio of IC50 for 17 week drug adapted HIV1 HXB-2D harboring reverse transcriptase D237N mutant gene to IC50 for HIV1 HXB-2D harboring wild type reverse transcriptase; format: functional
# [3] = system: Human immunodeficiency virus 1; assay: Selectivity ratio of IC50 for HIV1 HXB-2D harboring reverse transcriptase M184V mutant gene to IC50 for wild type HIV1 HXB-2D infected in human cord blood mononuclear cells; format: functional
# [4] = system: Human immunodeficiency virus 1; assay: Selectivity ratio of IC50 for HIV1 HXB-2D harboring reverse transcriptase K65R mutant gene to IC50 for wild type HIV1 HXB-2D infected in human cord blood mononuclear cells; format: functional
# [5] = system: Human immunodeficiency virus 1; assay: Selectivity ratio of IC50 for 8 week drug adapted HIV1 HXB-2D harboring reverse transcriptase F87L/F mutant gene to IC50 for HIV1 HXB-2D harboring reverse transcriptase M184V mutant gene; format: functional
# [6] = system: Human immunodeficiency virus 1; assay: Selectivity ratio of IC50 for 48 week drug adapted HIV1 HXB-2D harboring reverse transcriptase M184V mutant gene to IC50 for HIV1 HXB-2D harboring wild type reverse transcriptase; format: functional
# [7] = system: Human immunodeficiency virus 1; assay: Selectivity ratio of IC50 for 38 week drug adapted HIV1 HXB-2D harboring reverse transcriptase S68S/G mutant gene to IC50 for HIV1 HXB-2D harboring reverse transcriptase K65R mutant gene; format: functional
# [8] = system: Human immunodeficiency virus 1; assay: Selectivity ratio of IC50 for 17 week drug adapted HIV1 HXB-2D harboring reverse transcriptase S68S/G mutant gene to IC50 for HIV1 HXB-2D harboring reverse transcriptase K65R mutant gene; format: functional
# [9] = system: Human immunodeficiency virus 1; assay: Selectivity ratio of IC50 for 32 week drug adapted HIV1 HXB-2D harboring reverse transcriptase K65R mutant gene to IC50 for HIV1 HXB-2D harboring reverse transcriptase K65R mutant gene; format: functional
# [10] = system: Human immunodeficiency virus 1; assay: Antiviral activity against HIV1 HXB-2D harboring reverse transcriptase K65R mutant gene infected in human cord blood mononuclear cells; format: functional, organism-based; details: Human immunodeficiency virus 1, HXB-2D
# [11] = system: Human immunodeficiency virus 1; assay: Selectivity ratio of IC50 for 38 week drug adapted HIV1 HXB-2D harboring reverse transcriptase I50T/II, D237N/D mutant gene to IC50 for HIV1 HXB-2D harboring wild type reverse transcriptase; format: functional
# [12] = system: Human immunodeficiency virus 1; assay: Selectivity ratio of IC50 for 51 week drug adapted HIV1 HXB-2D harboring reverse transcriptase M184V, K65R mutant gene to IC50 for HIV1 HXB-2D harboring wild type reverse transcriptase; format: functional
# [13] = system: Human immunodeficiency virus 1; assay: Selectivity ratio of IC50 for 51 week drug adapted HIV1 HXB-2D harboring reverse transcriptase M184V/M, K65R mutant gene to IC50 for HIV1 HXB-2D harboring wild type reverse transcriptase; format: functional
# [14] = system: Human immunodeficiency virus 1; assay: Selectivity ratio of IC50 for 8 week drug adapted HIV1 HXB-2D harboring reverse transcriptase K65R mutant gene to IC50 for HIV1 HXB-2D harboring reverse transcriptase K65R mutant gene; format: functional
# [15] = system: Human immunodeficiency virus 1; assay: Selectivity ratio of IC50 for 8 week drug adapted HIV1 HXB-2D harboring reverse transcriptase M184V, M41L, T215Y mutant gene to IC50 for HIV1 HXB-2D harboring reverse transcriptase M184V, M41L, T215Y mutant gene; format: functional
# [16] = system: Human immunodeficiency virus 1; assay: Selectivity ratio of IC50 for 28 week drug adapted HIV1 HXB-2D harboring reverse transcriptase M184V, M41L, T215Y mutant gene to IC50 for HIV1 HXB-2D harboring reverse transcriptase M184V, M41L, T215Y mutant gene; format: functional
# [17] = system: Human immunodeficiency virus 1; assay: Selectivity ratio of IC50 for 8 week drug adapted HIV1 HXB-2D harboring reverse transcriptase D237N mutant gene to IC50 for HIV1 HXB-2D harboring wild type reverse transcriptase; format: functional
# [18] = system: Human immunodeficiency virus 1; assay: Antiviral activity against HIV1 HXB-2D harboring reverse transcriptase M184V mutant gene infected in human cord blood mononuclear cells; format: functional, organism-based; details: Human immunodeficiency virus 1, HXB-2D
# [19] = system: Human immunodeficiency virus 1; assay: Antiviral activity against HIV1 HXB-2D harboring reverse transcriptase M184V, M41L and T215Y mutant gene infected in human cord blood mononuclear cells; format: functional, organism-based; details: Human immunodeficiency virus 1, HXB-2D
# [20] = system: Human immunodeficiency virus 1; assay: Selectivity ratio of IC50 for 32 week drug adapted HIV1 HXB-2D harboring wild type reverse transcriptase to IC50 for HIV1 HXB-2D harboring wild type reverse transcriptase; format: functional
# [21] = system: Human immunodeficiency virus 1; assay: Antiviral activity against wild type HIV1 HXB-2D infected in human cord blood mononuclear cells; format: functional, organism-based; details: Human immunodeficiency virus 1, HXB-2D
# [22] = system: Human immunodeficiency virus 1; assay: Selectivity ratio of IC50 for 20 week drug adapted HIV1 HXB-2D harboring reverse transcriptase M184V, M41L, T215Y mutant gene to IC50 for HIV1 HXB-2D harboring reverse transcriptase M184V, M41L, T215Y mutant gene; format: functional
# [23] = system: Human immunodeficiency virus 1; assay: Selectivity ratio of IC50 for 32 week drug adapted HIV1 HXB-2D harboring reverse transcriptase V101I/V, D177N, E194G mutant gene to IC50 for HIV1 HXB-2D harboring reverse transcriptase M184V mutant gene; format: functional
# [24] = system: Human immunodeficiency virus 1; assay: Selectivity ratio of IC50 for 17 week drug adapted HIV1 HXB-2D harboring reverse transcriptase D177N/D, E194E/G mutant gene to IC50 for HIV1 HXB-2D harboring reverse transcriptase M184V mutant gene; format: functional
# [25] = system: Human immunodeficiency virus 1; assay: Selectivity ratio of IC50 for 38 week drug adapted HIV1 HXB-2D harboring reverse transcriptase V101I/V, D177N, E194G mutant gene to IC50 for HIV1 HXB-2D harboring reverse transcriptase M184V mutant gene; format: functional
smiles,measurement,setting,value
Nc1ccn([C@H]2CO[C@@H](CO)S2)c(=O)n1 [APRICITABINE],fold change (FC),[1],1.77
same,fold change (FC),[2],1.3
same,fold change (FC),[3],2.37
same,fold change (FC),[4],2.69
same,fold change (FC),[5],1.7
same,fold change (FC),[6],8
same,fold change (FC),[7],3
same,fold change (FC),[8],0.5
same,fold change (FC),[9],2.5
same,IC50,[10],20.3 µM
same,fold change (FC),[11],8
same,fold change (FC),[12],8
same,fold change (FC),[13],13.3
same,fold change (FC),[14],0.5
same,fold change (FC),[15],0.7
same,fold change (FC),[16],3.7
same,fold change (FC),[17],4
same,IC50,[18],17.9 µM
same,IC50,[19],13.4 µM
same,fold change (FC),[20],4
same,IC50,[21],7.54 µM
same,fold change (FC),[22],3.7
same,fold change (FC),[23],3.4
same,fold change (FC),[24],1.1
same,fold change (FC),[25],3.4
